We go through two molecules from ChEMBL document CHEMBL1152175, “Synthesis, tubulin assembly, and antiproliferative activity against MCF7 and NCI/ADR-RES cancer cells of 10-O-acetyl-5'-hydroxybutitaxel” (2008).

The subject of assay [1] is NCI/ADR-RES. The assay can be described thus: Cytotoxicity against human NCI/ADR-RES cells. In kind it is functional. As to conditions: read-out: ED50 (the source's name).
Assay [2] is described as follows: Inhibition of tubulin assembly.
The test system of assay [3] is MCF7. The experiment in a line: Cytotoxicity against human MCF7 cells. In kind it is functional. The note with it: read-out: ED50 (the source's name).

For the molecule `CC(=O)O[C@H]1C(=O)[C@@]2(C)[C@H]([C@H](OC(=O)c3ccccc3)[C@]3(O)C[C@H](OC(=O)[C@H](O)[C@@H](NC(=O)OC(C)(C)C)C(C)(C)CO)C(C)=C1C3(C)C)[C@]1(OC(C)=O)CO[C@@H]1C[C@@H]2O`, the EC50 in assay [1] is 12500 nM; in assay [3] it was 560 nM. Besides, the ED50 in assay [2] worked out at 2200 nM.

Turning to `CC(=O)O[C@H]1C(=O)[C@@]2(C)[C@H]([C@H](OC(=O)c3ccccc3)[C@]3(O)C[C@H](OC(=O)[C@H](O)[C@@H](NC(=O)c4ccccc4)c4ccccc4)C(C)=C1C3(C)C)[C@]1(OC(C)=O)CO[C@@H]1C[C@@H]2O` [PACLITAXEL], the results for the EC50 in assay [1] and in assay [3] were 2000 nM and 2.1 nM, respectively. The molecule further returned an ED50 in assay [2] of 1200 nM.
